Measured values taken from patent US12590063B2, “Phenol derivative” (Sumitomo Pharma Co., Ltd., priority 2020, dated 2026).

What was measured:
Human TRPV1 = molecular target: T1, Human TRPV1 (Homo sapiens, UniProt Q8NER1); test: Evaluation of agonistic properties using human TRPV1 transiently expressing cells; type: cell-based; details: for EC50: HEK293 cells transiently expressing human TRPV1 and apoaequorin, luminescence signal Rlu (Max-Min), read-out: TRPV1 EC50; for TRPV-1-agonistic activity (in words): evaluation test for TRPV-1-agonistic properties, summary of Tables 3 and 4
T1 construct: the TRPV1 gene (GenBank NP_542435.2) had been inserted; expressed in transfected cells; host or cells: HEK293 cells (cat #CCL-82.2, ATCC), transient transfection with pcDNA3.1
Source text: Test Example 1: Evaluation of Agonistic Properties Using Human TRPV1 Transiently Expressing Cells
(1) Generation of Human TRPV1 Transiently Expressing Cells
Human TRPV1 transiently expressing cells were generated and subjected to culture. Specifically, HEK293 cells (cat #CCL-82.2, ATCC) were used as host cells. Human TRPV1 and apoaequorin were transiently expressed by introducing the mammalian cell expression pcDNA3.1 vector (cat #v790-20, Invitrogen) into which the TRPV1 gene (GenBank NP_542435.2) had been inserted.
The Dulbecco's Modified Eagle's Medium (DMEM) medium (cat #11550-043, Thermo Fisher Scientific) containing 10% inactivated fetal bovine serum (cat #10270-106, Thermo Fisher Scientific) was used as the medium, and the culture was carried out in tissue culture dishes (cat #3020-100, Iwaki). During the culture, cells were collected every 2 to 3 days by treating with PBS containing 10% 2.5 g/1-trypsin/[…] solution, phenol red (cat #32777-44, Nacalai Tesque), and passage culture was carried out.
Three days after the passage, cells were collected with 10% trypsin-PBS treatment at a state of about 80% confluency, suspended in a DMEM medium containing 10% fetal bovine serum to 4000 cells/35 μl/well, and seeded into 384-well plates (cat #353962, FALCON).
The day after seeding, Viviren (cat #E6492, Promega) was added (15 μl/well) to a final concentration of 4.5 μM/HBSS (cat #14065-056, Thermo Fisher Scientific)/90 mM HEPES (cat #17514-15, Nacalai Tesque)/0.1% BSA (cat #01281-84, Nacalai Tesque), and after centrifugation, the samples were allowed to stand at room temperature for 2 hours under light-shielded conditions.
(2) Preparation of Test Compounds
For the test compounds, dimethyl sulfoxide solutions were produced at a concentration 1000 times the final concentration, and from these solutions, solutions at concentration 10 times the final concentration were prepared with Hanks/20 mmol/L HEPES/0.10% BSA (cat #01281-84, Nacalai Tesque).
(3) Evaluation of TRPV1-Agonistic Properties
FDSS7000 (Hamamatsu Photonics K.K.) was used for detection of TRPV1 agonist-stimulated luminescence signals. The test compounds were added to plates to which the cells and luminescent substrates had been added. The luminescence signals (center wavelength: 465 nm) after addition of the test compounds were measured, and the Rlu (Max−Min) was calculated.

Crl:CD(SD) rats = test: Evaluation of taste aversion by drinking water; type: in vivo, rat; details: two-bottle choice, overnight
Protocol: Test Example 3: Evaluation of Taste Aversion by Drinking Water
This test is for evaluating the taste aversion of drugs. The test was carried out by, while keeping Crl:CD(SD) rats (8 rats per group, 8 weeks old at the time of arrival) in home cages, adding the test substance solutions to water bottles. Two water bottles per cage were prepared, each filled with vehicle (sterile water containing 0.05% ethanol) and the test substance solution, and kept overnight, and the amount of water consumed during that period was measured. The proportion of water consumed with the test substance was calculated from the total amount of water consumed from the two water bottles, and the evaluation of taste aversion was carried out. It can be evaluated that the larger the proportion of water consumed with the test substance, the smaller the taste aversion and the smaller the stimulatory properties caused by the test substance.

[1] = Evaluation test for metabolic stability to S9; type: in vitro ADME; details: liver S9 fraction, 37° C., 15 minutes, final compound concentration 10 nM
Protocol: Test Example 4: Evaluation Test for Metabolic Stability to S9
The compounds were added to a reaction solution in which the liver S9 fraction was diluted with phosphate buffer, and incubation was initiated at 37° C. (final compound concentration 10 nM, final volume 300 μL). After incubation for 15 minutes, the reaction was stopped by adding the reaction solution to acetonitrile, and centrifugation was carried out. After filtering the supernatant through a filter, the amount of compounds was determined using LC/MS/MS. From the amount of compounds obtained, the residual rate 15 minutes after the initiation of the reaction was calculated relative to the amount of compounds before the initiation of the reaction (0 minutes).

T1 sequence (Q8NER1 whole entry): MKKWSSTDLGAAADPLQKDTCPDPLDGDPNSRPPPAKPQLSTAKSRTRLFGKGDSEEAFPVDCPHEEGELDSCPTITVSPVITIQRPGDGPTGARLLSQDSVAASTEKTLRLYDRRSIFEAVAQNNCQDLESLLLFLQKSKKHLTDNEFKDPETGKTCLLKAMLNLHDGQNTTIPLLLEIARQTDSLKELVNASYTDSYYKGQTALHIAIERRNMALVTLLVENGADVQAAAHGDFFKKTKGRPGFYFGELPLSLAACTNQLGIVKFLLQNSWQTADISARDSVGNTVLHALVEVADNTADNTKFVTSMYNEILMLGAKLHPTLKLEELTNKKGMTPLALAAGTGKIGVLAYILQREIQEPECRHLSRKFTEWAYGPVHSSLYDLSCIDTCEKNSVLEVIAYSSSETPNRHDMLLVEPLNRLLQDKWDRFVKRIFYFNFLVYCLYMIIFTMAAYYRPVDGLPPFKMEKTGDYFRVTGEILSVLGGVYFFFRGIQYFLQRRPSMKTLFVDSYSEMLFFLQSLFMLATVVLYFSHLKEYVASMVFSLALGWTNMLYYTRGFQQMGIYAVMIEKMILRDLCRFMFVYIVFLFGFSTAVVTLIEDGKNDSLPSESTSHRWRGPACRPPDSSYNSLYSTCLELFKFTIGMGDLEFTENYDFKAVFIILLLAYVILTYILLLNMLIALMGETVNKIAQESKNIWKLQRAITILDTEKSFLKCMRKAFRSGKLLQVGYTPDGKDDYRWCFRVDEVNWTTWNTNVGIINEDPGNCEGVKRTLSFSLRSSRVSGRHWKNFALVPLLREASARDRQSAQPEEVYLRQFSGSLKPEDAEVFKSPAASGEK

SMILES	EC50 (Human TRPV1) [nM]	TRPV-1-agonistic activity (in words) (Human TRPV1)	proportion of water consumed with the test substance (% Vehicle) (Crl:CD(SD) rats; 1 μM in drinking water)	proportion of water consumed with the test substance (% Vehicle) (Crl:CD(SD) rats; 3 μM in drinking water)	proportion of water consumed with the test substance (% Vehicle) (Crl:CD(SD) rats; 10 μM in drinking water)	Residual rate (%) [1] [%]
COc1cc(CC(=O)Nc2ccnc(-c3cccc(OC(=O)C(C)C)c3)c2)ccc1O [Example 26, 3-{4-[2-(4-hydroxy-3-methoxyphenyl)acetamido]pyridin-2-yl}phenyl 2-methylpropanoate]	2.3	stronger TRPV-1-agonistic activity	113	86	55	<1
COc1cc(CC(=O)Nc2cccc(-c3cccc(OC(=O)CC4CCCCC4)c3)c2)ccc1O [Example 30, 3′-[2-(4-hydroxy-3-methoxyphenyl)acetamido][1,1′-biphenyl]-3-yl cyclohexylacetate]	7.2					<1
COc1cc(CNC(=O)c2ccnc(-c3cccc(OC(=O)C(C)C)c3)c2)ccc1O [Example 46, 3-(4-{[(4-hydroxy-3-methoxyphenyl)methyl]carbamoyl}pyridin-2-yl)phenyl 2-methylpropanoate]	4.3	stronger TRPV-1-agonistic activity				<1
COc1cc(CC(=O)Nc2cccc(-c3ccc(OC(=O)c4ccccc4)cc3)c2)ccc1O [Example 3, 3′-[2-(4-hydroxy-3-methoxyphenyl)acetamido][1,1′-biphenyl]-4-yl benzoate]	341					<1
COc1cc(CC(=O)Nc2cccc([C@H]3CC[C@@H](OC(=O)COc4ccccc4)CC3)c2)ccc1O [Example 6, cis-4-{3-[2-(4-hydroxy-3-methoxyphenyl)acetamido]phenyl}cyclohexyl phenoxyacetate]	5.3					1
COc1cc(CC(=O)Nc2cc(-c3cccc(OC(=O)C(C)C)c3)ccc2OC)ccc1O [Example 20, 3′-[2-(4-hydroxy-3-methoxyphenyl)acetamido]-4′-methoxy[1,1′-biphenyl]-3-yl 2-methylpropanoate]	35.1					<1
COc1cc(CC(=O)Nc2cccc([C@H]3CC[C@@H](OC(=O)Cc4ccccc4Cl)CC3)c2)ccc1O [Example 10, cis-4-{3-[2-(4-hydroxy-3-methoxyphenyl)acetamido]phenyl}cyclohexyl (2-chlorophenyl)acetate]	4.8					67
COc1cc(CC(=O)Nc2cc(-c3cccc(OC(=O)C(C)C)c3)ccc2F)ccc1O [Example 22, 4′-fluoro-3′-[2-(4-hydroxy-3-methoxyphenyl)acetamido][1,1′-biphenyl]-3-yl 2-methylpropanoate]	6.8					<1
COc1cc(CC(=O)Nc2cccc(-c3cccc(OC(=O)C(C)C)c3)c2OC)ccc1O [Example 21, 3′-[2-(4-hydroxy-3-methoxyphenyl)acetamido]-2′-methoxy[1,1′-biphenyl]-3-yl 2-methylpropanoate]	6750					<1
COc1cc(CC(=O)Nc2cccc(-c3ccc(OC(=O)C(C)C)cc3)c2)ccc1O [Example 4, 3′-[2-(4-hydroxy-3-methoxyphenyl)acetamido][1,1′-biphenyl]-4-yl 2-methylpropanoate]	33.6					<1
COc1cc(CC(=O)Nc2cc(-c3cccc(OC(=O)C(C)C)c3)ccn2)ccc1O [Example 25, 3-{2-[2-(4-hydroxy-3-methoxyphenyl)acetamido]pyridin-4-yl}phenyl 2-methylpropanoate]	38					<1
COc1cc(CC(=O)Nc2cccc(-c3cccc(OC(=O)CC4CCCCC4)c3)n2)ccc1O [Example 32, 3-{6-[2-(4-hydroxy-3-methoxyphenyl)acetamido]pyridin-2-yl}phenyl cyclohexylacetate]	11.6					2
COc1cc(CC(=O)Nc2cccc(-c3cccc(OC(=O)C(C)C)c3)c2F)ccc1O [Example 23, 2′-fluoro-3′-[2-(4-hydroxy-3-methoxyphenyl)acetamido][1,1′-biphenyl]-3-yl 2-methylpropanoate]	15.2					<1
